Entries after “also recorded” stand apart in the source; their conditions may differ.
Experiments:
[1] = test system: LPS-induced cytokine release; test: LPS-induced systemic inflammation, plasma cytokines post LPS; set-up: species or system mice; conditions: mouse, in vivo
Method: In order to evaluate the ADC potential efficacy in auto-immune diseases, we used the short-term model of LPS-induced systemic inflammation. Intraperitoneal (i.p.) injection of lipopolysaccharide (LPS) is widely used as a model for acute immune response—both local and systemic—in mice.
Blood was collected at 2 or 4 h post LPS i.p. injection, and plasma isolated for cytokine analyses.
Mice were dosed at 0.5 mg/Kg.
For ADC-INVIVO-30 and 35, the Immune Monitoring Lab (IML, Shared Resources at Dartmouth-Hitchcock Norris Cotton Cancer Center) performed the analyses.
ELISAs were conducted following the manufacturer's included protocol.
Cytokine data are censored when below a […] threshold for IL-12p40 and/or […] threshold for TNF-α as it indicates a failed LPS injection.

[2] = test system: peritoneal resident macrophages; test: In vivo treatment / ex vivo activation of peritoneal resident macrophages (TNFα, IL-6); set-up: species or system mice; conditions: Experiment 9, 0.2 mg/Kg of GC payload, day −7, supernatants at 24 h
[3] = test system: LPS stimulated human PBMCs; test: In vitro potency of steroid payloads in LPS stimulated human PBMCs (IL-1β, IL-6 ELISA); assay type: cell-based; conditions: for IL-1β and IL-6 production: Experiment 1, 1000-1 nM

| Structure (SMILES) | potency of conjugated linker/payload in the short term LPS activation model (conclusions) [1] | long term potency in controlling PRM cytokine responses (TNFα, IL-6) [2] | steroid potency as free payloads in LPS-activated human PBMCS (conclusions) [3] | further results |
| --- | --- | --- | --- | --- |
| CC12C=CC(=O)C=C1CCC1C2C(O)CC2(C)C1CC1OC(c3ccc(Cc4cnc(NC(=O)C(CCC(=O)O)NC(=O)CNC(=O)CBr)s4)cc3)OC12C(=O)CO [INX N, (S)-4-(2-(2-bromoacetamido)acetamido)-5-((5-(4-((6aR,6bS,7S,8aS,8bS,10R,11aR,12aS,12bS)-7-hydroxy-8b-(2-hydroxyacetyl)-6a,8a-dimethyl-4-oxo-2,4,6a,6b,7,8,8a,8b,11a,12,12a,12b-dodecahydro-1H-naphtho[2′,1′:4,5]indeno[1,2-d][1,3]dioxol-10-yl)benzyl)thiazol-2-yl)amino)-5-oxopentanoic acid] | no potency |  |  |  |
| C[C@]12C=CC(=O)C=C1CC[C@@H]1[C@@H]2[C@@H](O)C[C@@]2(C)[C@H]1C[C@H]1O[C@@H](C34CC(Cc5cccc(NC(=O)[C@H](CCC(=O)O)NC(=O)CNC(=O)CBr)c5)(C3)C4)O[C@]12C(=O)CO [INX O, (S)-4-(2-(2-bromoacetamido)acetamido)-5-((3-((3-((6aR,6bS,7S,8aS,8bS,10R,11aR,12aS,12bS)-7-hydroxy-8b-(2-hydroxyacetyl)-6a,8a-dimethyl-4-oxo-2,4,6a,6b,7,8,8a,8b,11a,12,12a,12b-dodecahydro-1H-naphtho[2′,1′:4,5]indeno[1,2-d][1,3]dioxol-10-yl)bicyclo[1.1.1]pentan-1-yl)methyl)phenyl)amino)-5-oxopentanoic acid] | reduced potency | little and non-significant impact; also recorded: very limited potency |  |  |
| C[C@]12C=CC(=O)C=C1CC[C@@H]1[C@@H]2[C@@H](O)C[C@@]2(C)[C@H]1C[C@H]1O[C@@H](c3ccc(CC45CC(NC(=O)[C@H](CCC(=O)O)NC(=O)CNC(=O)CBr)(C4)C5)cc3)O[C@]12C(=O)CO [INX P, (S)-4-(2-(2-bromoacetamido)acetamido)-5-((3-(4-((6aR,6bS,7S,8aS,8bS,10R,11 aR,12aS,12bS)-7-hydroxy-8b-(2-hydroxyacetyl)-6a,8a-dimethyl-4-oxo-2,4,6a,6b,7,8,8a,8b,11a,12,12a,12b-dodecahydro-1H-naphtho[2′,1′:4,5]indeno[1,2-d][1,3]dioxol-10-yl)benzyl)bicycle[1.1.1]pentan-1-yl)amino)-5-oxopentanoic acid] | more potent |  |  |  |
| C[C@H](NC(=O)CBr)C(=O)N[C@@H](C)C(=O)NC12CC(Cc3ccc([C@@H]4O[C@@H]5C[C@H]6[C@@H]7CCC8=CC(=O)C=C[C@]8(C)[C@H]7[C@@H](O)C[C@]6(C)[C@]5(C(=O)CO)O4)cc3)(C1)C2 [INX R, (S)-2-(2-bromoacetamido)-N—((S)-1-((3-(4-((6aR,6bS,7S,8aS,8bS,10R,11aR, 12aS,12bS)-7-hydroxy-8b-(2-hydroxyacetyl)-6a,8a-dimethyl-4-oxo-2,4,6a,6b,7,8,8a,8b,11a,12,12a,12b-dodecahydro-1H-naphtho[2′,1′:4,5]indeno[1,2-d][1,3]dioxol-10-yl)benzyl)bicyclo [1.1.1]pentan-1-yl)amino)-1-oxopropan-2-yl)propanamide] | efficacious |  |  |  |
| C[C@]12C=CC(=O)C=C1[C@@H](F)C[C@H]1[C@@H]3C[C@H]4O[C@@H](c5ccc(CC67CC(NC(=O)[C@H](CCC(=O)O)NC(=O)CNC(=O)CBr)(C6)C7)cc5)O[C@@]4(C(=O)CO)[C@@]3(C)C[C@H](O)[C@@]12F [INX S, (S)-4-(2-(2-bromoacetamido)acetamido)-5-((3-(4-((2S,6aS,6bR,7S,8aS,8bS, 10R,11 aR,12aS,12bS)-2,6b-difluoro-7-hydroxy-8b-(2-hydroxyacetyl)-6a,8a-dimethyl-4-oxo-2,4,6a,6b,7,8,8a,8b,11a,12,12a,12b-dodecahydro-1H-naphtho[2′,1′:4,5]indeno[1,2-d][1,3]dioxol-10-yl)benzyl)bicyclo [1.1.1]pentan-1-yl)amino)-5-oxopentanoic acid] |  | remarkable long term potency; also recorded: increased potency relative to INX P |  |  |
| C[C@]12C=CC(=O)C=C1CC[C@@H]1[C@@H]2[C@@H](O)C[C@@]2(C)[C@H]1C[C@H]1O[C@@H](c3ccc(CC4CC5(C4)CC(NC(=O)[C@H](CCC(=O)O)NC(=O)CNC(=O)CBr)C5)cc3)O[C@]12C(=O)CO (stereo partly drawn) [INX V, (S)-4-(2-(2-bromoacetamido)acetamido)-5-((6-(4-((6aR,6bS,7S,8aS,8bS,10R,11 aR,12aS,12bS)-7-hydroxy-8b-(2-hydroxyacetyl)-6a,8a-dimethyl-4-oxo-2,4,6a,6b,7,8,8a,8b,11a,12,12a,12b-dodecahydro-1H-naphtho[2′,1′:4,5]indeno[1,2-d][1,3]dioxol-10-yl)benzyl)spiro[3.3]heptan-2-yl)amino)-5-oxopentanoic acid] |  | remarkable long term potency |  |  |
| C[C@]12C=CC(=O)C=C1CC[C@@H]1[C@@H]2[C@@H](O)C[C@@]2(C)[C@H]1C[C@H]1O[C@@H](c3ccc(CC45CC(NC(=O)[C@H](CCCCN)NC(=O)CNC(=O)CBr)(C4)C5)cc3)O[C@]12C(=O)CO [INX W, (S)-6-amino-2-(2-(2-bromoacetamido)acetamido)-N-(3-(4-((6aR,6bS,7S,8aS,8bS,10R,11aR,12aS,12bS)-7-hydroxy-8b-(2-hydroxyacetyl)-6a,8a-dimethyl-4-oxo-2,4,6a,6b,7,8,8a,8b,11a,12,12a,12b-dodecahydro-1H-naphtho[2′,1′:4,5]indeno[1,2-d][1,3]dioxol-10-yl)benzyl)bicycle [1.1.1]pentan-1-yl)hexanamide] | efficacious | remarkable long term potency; also recorded: increased potency relative to INX P and INX R |  |  |
| C[C@]12C=CC(=O)C=C1CC[C@@H]1[C@@H]2[C@@H](O)C[C@@]2(C)[C@H]1C[C@H]1O[C@H](c3ccc(CC45CC(N)(C4)C5)cc3)O[C@]12C(=O)CO [INX-SM-53, (6aR,6bS,7S,8aS,8bS,10S,11aR,12aS,12bS)-10-(4-((3-aminobicyclo[1.1.1]pentan-1-yl)methyl)phenyl)-7-hydroxy-8b-(2-hydroxyacetyl)-6a,8a-dimethyl-1,2,6a,6b,7,8,8a,8b, 11a,12,12a,12b-dodecahydro-4H-naphtho[2′,1′:4,5]indeno[1,2-d][1,3]dioxol-4-one] |  |  | did not show potency | IL-1β and IL-6 production ([3]; 1 ng/mL LPS, 24 hr, n=1 donor): did not show inhibition |
| C[C@]12C=CC(=O)C=C1CC[C@@H]1[C@@H]2[C@@H](O)C[C@@]2(C)[C@H]1C[C@H]1O[C@H](C34CC(Cc5cccc(N)c5)(C3)C4)O[C@]12C(=O)CO [INX-SM-54, (6aR,6bS,7S,8aS,8bS,10S,11aR,12aS,12bS)-10-(3-(3-aminobenzyl)bicyclo[1.1.1]pentan-1-yl)-7-hydroxy-8b-(2-hydroxyacetyl)-6a,8a-dimethyl-1,2,6a,6b,7,8,8a,8b,11a,12,12a,12b-dodecahydro-4H-naphtho[2′,1′:4,5]indeno[1,2-d][1,3]dioxol-4-one] |  |  | did not show potency | IL-1β and IL-6 production ([3]; 1 ng/mL LPS, 24 hr, n=1 donor): did not show inhibition |
| C[C@]12C=CC(=O)C=C1CC[C@@H]1[C@@H]2[C@@H](O)C[C@@]2(C)[C@H]1C[C@H]1O[C@H](c3cnc(Cc4cccc(N)c4)s3)O[C@]12C(=O)CO [INX-SM-56, (6aR,6bS,7S, 8aS,8bS,10S,11aR,12aS,12bS)-10-(2-(3-aminobenzyl)thiazol-5-yl)-7-hydroxy-8b-(2-hydroxyacetyl)-6a,8a-dimethyl-1,2,6a,6b,7,8,8a,8b, 11a,12,12a,12b-dodecahydro-4H-naphtho[2′,1′:4,5]indeno[1,2-d][1,3]dioxol-4-one] |  |  | did not show potency | IL-1β production ([3]; Experiment 2, 1000-1 nM, 1 ng/mL LPS, 24 hr, n=1 donor): did not show inhibition |
| C[C@]12C=CC(=O)C=C1[C@@H](F)C[C@H]1[C@@H]3C[C@H]4O[C@H](c5ccc(CC67CC(N)(C6)C7)cc5)O[C@@]4(C(=O)CO)[C@@]3(C)C[C@H](O)[C@@]12F [INX-SM-74, (2S,6aS,6bR,7S,8aS,8bS,10S,11aR,12aS,12bS)-10-(4-((3-aminobicyclo[1.1.1]pentan-1-yl)methyl)phenyl)-2,6b-difluoro-7-hydroxy-8b-(2-hydroxyacetyl)-6a,8a-dimethyl-1,2,6a,6b,7,8,8a,8b,11a,12,12a,12b-dodecahydro-4H-naphtho[2′,1′:4,5]indeno[1,2-d][1,3]dioxol-4-one] |  |  | varying degrees of dose dependent steroid potency; also recorded: moderate potency | impact of halogenation of the steroid ring on potency ([3]; Experiment 6, 1000-0.16 nM, compared with INX-SM-3): dose dependent potency |
